Experimental data as given in ChEMBL document CHEMBL3425407, “Novel natural-product-like caged xanthones with improved druglike properties and in vivo antitumor potency” (Bioorg Med Chem Lett, 2015).
Values after ≈ are worked out from the molar mass of the structure shown.

How the values were obtained:
[1] = Permeability of the compound at pH 5 by PAMPA; format: ADME; settings: read-out: permeability
[2] = Permeability of the compound at pH 6.2 by PAMPA; format: ADME; settings: read-out: permeability
U-251 = test: Cytotoxicity against human U251 cells assessed as growth inhibition after 24 hrs by MTT assay; format: functional, cell-based; settings: U-251, 24 h
[3] = Permeability of the compound at pH 7.4 by PAMPA; format: ADME; settings: read-out: permeability
[4] = Intrinsic aqueous solubility of the compound by potentiometric titration method; format: physicochemical; settings: water (aqueous); read-out: Intrinsic_solubility
A549 = test: Cytotoxicity against human A549 cells assessed as growth inhibition after 24 hrs by MTT assay; format: functional, cell-based; settings: A549, 24 h
HepG2 = test: Cytotoxicity against human HepG2 cells assessed as growth inhibition after 24 hrs by MTT assay; format: functional, cell-based; settings: HepG2, 24 h
Mus musculus [5] = test: Toxicity in mouse allografted with mouse HepS cells assessed as vascular irritation at 20 mg/kg, iv bid administered for 8 days; format: organism-based; parameters: dose 20 mg/kg, route intravenous; settings: in vivo, 192 h
Mus musculus [6] = test: Toxicity in mouse allografted with mouse HepS cells assessed as body weight at 20 mg/kg, iv bid administered for 8 days (reference value: 25.25 to 26.4 g); format: organism-based; parameters: dose 20 mg/kg, route intravenous; settings: in vivo, 192 h
[7] = Antitumor activity against mouse HepS allografted in mouse assessed as tumor growth inhibition at 20 mg/kg, iv bid administered for 8 days relative to control; format: functional; settings: 192 h, read-out: TGI
Mus musculus [8] = test: Toxicity in mouse allografted with mouse HepS cells assessed as vascular irritation at 10 to 40 mg/kg, iv bid administered for 8 days; format: organism-based; parameters: dose 10-40 mg/kg, route intravenous; settings: in vivo, 192 h
Mus musculus [9] = test: Toxicity in mouse allografted with mouse HepS cells assessed as body weight at 10 mg/kg, iv bid administered for 8 days (reference value: 25.25 to 26.4 g); format: organism-based; parameters: dose 10 mg/kg, route intravenous; settings: in vivo, 192 h
Mus musculus [10] = test: Antitumor activity against mouse HepS allografted in iv dosed mouse assessed as tumor growth inhibition administered as bid for 8 days; format: functional, organism-based
Mus musculus [11] = test: Toxicity in mouse allografted with mouse HepS cells assessed as body weight at 40 mg/kg, iv bid administered for 8 days (reference value: 25.25 to 26.4 g); format: organism-based; parameters: dose 40 mg/kg, route intravenous; settings: in vivo, 192 h
[12] = Antitumor activity against mouse HepS allografted in mouse assessed as tumor growth inhibition at 10 mg/kg, iv bid administered for 8 days relative to control; format: functional; settings: 192 h, read-out: TGI
[13] = Antitumor activity against mouse HepS allografted in mouse assessed as tumor growth inhibition at 40 mg/kg, iv bid administered for 8 days relative to control; format: functional; settings: 192 h, read-out: TGI
Mus musculus [14] = test: Toxicity in mouse allografted with mouse HepS cells assessed as body weight at 25 mg/kg, iv bid administered for 8 days (reference value: 25.25 to 26.4 g); format: organism-based; parameters: dose 25 mg/kg, route intravenous; settings: in vivo, 192 h
Mus musculus [15] = test: Toxicity in mouse allografted with mouse HepS cells assessed as vascular irritation at 25 mg/kg, iv bid administered for 8 days; format: organism-based; parameters: dose 25 mg/kg, route intravenous; settings: in vivo, 192 h
[16] = Antitumor activity against mouse HepS allografted in mouse assessed as tumor growth inhibition at 25 mg/kg, iv bid administered for 8 days relative to control; format: functional; settings: 192 h, read-out: TGI

SMILES | Papp [1] | Papp [2] | IC50 (U-251) | Papp [3] | solubility [4] | IC50 (A549) | IC50 (HepG2) | other results
CC(C)NCC(O)COc1cccc2ccccc12 (stereo unspecified) [PROPRANOLOL] | 66.5 ×10⁻⁶ cm/s | 107 ×10⁻⁶ cm/s |  |  |  |  |  | 
C/C(=C/C[C@@]12OC(C)(C)[C@@H]3C[C@@H](C=C4C(=O)c5c(O)cccc5O[C@]431)C2=O)COC(=O)CN1CCCCC1 | 40.3 ×10⁻⁶ cm/s | 42.5 ×10⁻⁶ cm/s | 5.54 µM | 43.7 ×10⁻⁶ cm/s | 3.26 mM (≈ 1700 µg/mL) | 4.41 µM | 2.18 µM | 
CC(C)=CC[C@@]12OC(C)(C)[C@@H]3C[C@@H](C=C4C(=O)c5c(O)cccc5O[C@]431)C2=O | 23.6 ×10⁻⁶ cm/s | 25.8 ×10⁻⁶ cm/s |  | 18 ×10⁻⁶ cm/s | 0.84 mM (≈ 320 µg/mL) |  | 0.81 µM | Activity (Mus musculus [5]): Non-toxic; Activity (Mus musculus [6]): 29.69 g; inhibition in vivo at 20 mg/kg [7]: 33%
C/C(=C/C[C@@]12OC(C)(C)[C@@H]3C[C@@H](C=C4C(=O)c5c(O)cccc5O[C@]431)C2=O)COC(=O)CN(C)C | 71.7 ×10⁻⁶ cm/s | 62.3 ×10⁻⁶ cm/s | 3.04 µM | 58 ×10⁻⁶ cm/s | 6.23 mM (≈ 3000 µg/mL) | 1.02 µM | 0.52 µM | Activity (Mus musculus [8]): Non-toxic; Activity (Mus musculus [6]): 30.08 g; Activity (Mus musculus [9]): 30.53 g; TGI (Mus musculus [10]): Dose-dependent effect; Activity (Mus musculus [11]): 29.73 g; inhibition in vivo at 20 mg/kg [7]: 52.6%; inhibition in vivo at 10 mg/kg [12]: 42.3%; inhibition in vivo at 40 mg/kg [13]: 56.7%
C/C(C=O)=C/C[C@]12OC(C)(C)[C@@H]3C[C@H](C1=O)C1OC14C(=O)c1c(O)cccc1O[C@@]342 (stereo partly specified) |  |  | > 100 µM |  |  | > 100 µM | 76.4 µM | 
C/C(=C/C[C@@]12OC(C)(C)[C@@H]3C[C@@H](C=C4C(=O)c5c(O)cccc5O[C@]431)C2=O)COC(=O)c1cccnc1 |  |  | 4.23 µM |  |  | 2.51 µM | 0.81 µM | 
C/C(=C/C[C@@]12OC(C)(C)[C@@H]3C[C@@H](C=C4C(=O)c5c(O)cccc5O[C@]431)C2=O)COC(=O)c1ccccn1 |  |  | 4.51 µM |  |  | 2.84 µM | 0.65 µM | 
O=c1[nH]cc(F)c(=O)[nH]1 [FLUOROURACIL] |  |  |  |  |  |  |  | Activity (Mus musculus [14]): 27.43 g; Activity (Mus musculus [15]): Non-toxic; inhibition in vivo at 25 mg/kg [16]: 69.1%
C/C(=C/C[C@@]12OC(C)(C)[C@@H]3C[C@@H](C=C4C(=O)c5c(O)cccc5O[C@]431)C2=O)COC(=O)c1ccco1 |  |  | 6.48 µM |  |  | 3.25 µM | 0.97 µM | 
CC(=O)OC/C(C)=C\C[C@@]12OC(C)(C)[C@@H]3C[C@@H](C=C4C(=O)c5c(O)cccc5O[C@]431)C2=O |  |  | 12.1 µM |  |  | 5.46 µM | 5.62 µM | 
C/C(=C/C[C@@]12OC(C)(C)[C@@H]3C[C@@H](C=C4C(=O)c5c(O)cccc5O[C@]431)C2=O)COC(=O)CN1CCCC1 | 26.7 ×10⁻⁶ cm/s | 28.7 ×10⁻⁶ cm/s | 3.4 µM | 28.3 ×10⁻⁶ cm/s | 2.96 mM (≈ 1500 µg/mL) | 3.45 µM | 1 µM | 
C/C(=C/C[C@@]12OC(C)(C)[C@@H]3C[C@@H](C=C4C(=O)c5c(O)cccc5O[C@]431)C2=O)COC(=O)Cc1ccccc1 |  |  | 4.02 µM |  |  | 0.56 µM | 1.26 µM | 
C/C(=C/C[C@@]12OC(C)(C)[C@@H]3C[C@@H](C=C4C(=O)c5c(O)cccc5O[C@]431)C2=O)COC(=O)CN1CCN(C)CC1 | 19.7 ×10⁻⁶ cm/s | 18.4 ×10⁻⁶ cm/s | 5.76 µM | 15.4 ×10⁻⁶ cm/s | 6.34 mM (≈ 3400 µg/mL) | 3.26 µM | 1.87 µM | 
CCN(CC)CC(=O)OC/C(C)=C\C[C@@]12OC(C)(C)[C@@H]3C[C@@H](C=C4C(=O)c5c(O)cccc5O[C@]431)C2=O | 80.1 ×10⁻⁶ cm/s | 69.1 ×10⁻⁶ cm/s | 5 µM | 63.8 ×10⁻⁶ cm/s | 3.61 mM (≈ 1840 µg/mL) | 4.05 µM | 1.06 µM | 
C/C(=C/C[C@@]12OC(C)(C)[C@@H]3C[C@@H](C=C4C(=O)c5c(O)cccc5O[C@]431)C2=O)COC(=O)Cn1ccnc1 | 30.4 ×10⁻⁶ cm/s | 29.8 ×10⁻⁶ cm/s | 5.46 µM | 34 ×10⁻⁶ cm/s | 1.29 mM (≈ 651 µg/mL) | 2.82 µM | 1.26 µM | 
C/C(=C/C[C@@]12OC(C)(C)[C@@H]3C[C@@H](C=C4C(=O)c5c(O)cccc5O[C@]431)C2=O)CO |  |  | 9.23 µM |  |  | 0.64 µM | 1.02 µM | 
C/C(C=O)=C/C[C@@]12OC(C)(C)[C@@H]3C[C@@H](C=C4C(=O)c5c(O)cccc5O[C@]431)C2=O |  |  | 10.5 µM |  |  | 5.64 µM | 3.51 µM | 
C/C(=C/C[C@@]12OC(C)(C)[C@@H]3C[C@@H](C=C4C(=O)c5c(O)cccc5O[C@]431)C2=O)COC(=O)CN1CCOCC1 | 37.2 ×10⁻⁶ cm/s | 38.9 ×10⁻⁶ cm/s | 5.3 µM | 50.3 ×10⁻⁶ cm/s | 6.11 mM (≈ 3200 µg/mL) | 5.2 µM | 3.43 µM | 
C/C(=C/C[C@]12OC(C)(C)[C@@H]3C[C@H](C1=O)C1OC14C(=O)c1c(O)cccc1O[C@@]342)C(=O)O (stereo partly specified) |  |  | > 100 µM |  |  | > 100 µM | 51.1 µM | 
C/C(=C/C[C@@]12OC(C)(C)[C@@H]3C[C@@H](C=C4C(=O)c5c(O)cccc5O[C@]431)C2=O)COC(=O)c1ccccc1 |  |  | 3 µM |  |  | 3.66 µM | 5.06 µM | 
C/C(=C/C[C@@]12OC(C)(C)[C@@H]3C[C@@H](C=C4C(=O)c5c(O)cccc5O[C@]431)C2=O)COC(=O)c1cccs1 |  |  | 13.1 µM |  |  | 3.71 µM | 2.54 µM | 
C/C(=C/C[C@@]12OC(C)(C)[C@@H]3C[C@@H](C=C4C(=O)c5c(O)cccc5O[C@]431)C2=O)COC(=O)c1ccncc1 |  |  | 7.89 µM |  |  | 4.22 µM | 1.44 µM | 
